Data taken from the RepoRT retention time repository (doi:10.1016/j.jchromb.2020.122105).

Key:
Settings in all cases: stereoisomer not certain
[1] = HILIC, Merck SeQuant ZIC-HILIC, 150 × 2.1 mm, 5 µm, 0.75 mL/min, estimated dead time 0.44 min; A: water + 10 mM ammonium formate, pH 6; B: 5% water + 95% acetonitrile + 10 mM ammonium formate, pH 6; gradient (min/%B) 0/95 5/95 20/57 25/57 30/95 40/95
[2] = RP, Thermo Scientific Hypercarb, 150 × 2.1 mm, 5 µm, 0.1 mL/min, estimated dead time 3.3 min; A: water + 0.1% formic acid, pH 3; B: methanol + 0.1% formic acid, pH 3; gradient (min/%B) 0/5 5/5 20/100 35/100 35.1/5 45/5
[3] = RP, Waters CORTECS T3, 100 × 2.1 mm, 2.7 µm, 0.15 mL/min, estimated dead time 1.5 min; A: water + 0.1% formic acid, pH 3; B: methanol + 0.1% formic acid, pH 3; gradient (min/%B) 0/5 5/5 25/95 25.1/100 35/100 35.1/5 45/5
[4] = RP, Waters CORTECS T3, 100 × 2.1 mm, 2.7 µm, 0.3 mL/min, estimated dead time 0.73 min; A: water + 0.1% formic acid, pH 3; B: methanol + 0.1% formic acid, pH 3; gradient (min/%B) 0/0 1/0 6/5 30/100 35/100 35.1/0 40/0
[5] = RP, Waters CORTECS T3, 100 × 2.1 mm, 2.7 µm, 0.25 mL/min, estimated dead time 0.88 min; A: water + 0.1% formic acid, pH 3; B: methanol + 0.1% formic acid, pH 3; gradient (min/%B) 0/5 5/5 25/95 25.1/100 35/100 35.1/5 45/5
[6] = RP, Waters ACQUITY UPLC BEH C18, 100 × 2.1 mm, 1.7 µm, 0.2 mL/min, estimated dead time 1.1 min; A: water + 0.1% formic acid, pH 3; B: methanol + 0.1% formic acid, pH 3; gradient (min/%B) 0/5 5/5 25/100 30/100 30.1/5 35/5
[7] = RP, Waters ACQUITY UPLC BEH C18, 100 × 2.1 mm, 1.7 µm, 0.2 mL/min, estimated dead time 1.1 min; A: water + 0.025% formic acid + 20 mM ammonium acetate + 0.055% ammonium hydroxide, pH 7; B: methanol; gradient (min/%B) 0/5 5/5 25/100 30/100 30.1/5 35/5
[8] = RP, Waters CORTECS T3, 100 × 2.1 mm, 2.7 µm, 0.3 mL/min, estimated dead time 0.73 min; A: water + 0.1% formic acid, pH 3; B: methanol + 0.1% formic acid, pH 3; gradient (min/%B) 0/0 5/0 25/100 30/100 30.1/0 35/0
[9] = RP, Waters ACQUITY UPLC BEH C18, 100 × 2.1 mm, 1.7 µm, 0.1 mL/min, estimated dead time 2.2 min; A: water + 0.1% formic acid, pH 3; B: methanol + 0.1% formic acid, pH 3; gradient (min/%B) 0/5 5/5 25/95 25.1/100 35/100 35.1/5 45/5
[10] = HILIC, Waters XBridge BEH Amide, 100 × 2.1 mm, 2.5 µm, 0.5 mL/min, estimated dead time 0.44 min; A: water + 0.1% acetic acid + 10 mM ammonium acetate, pH 4; B: 5% water + 95% acetonitrile + 0.1% acetic acid + 10 mM ammonium acetate, pH 4; gradient (min/%B) 0/95 5/95 20/57 25/57 30/95 40/95
[11] = RP, Waters ACQUITY UPLC BEH C18, 100 × 2.1 mm, 1.7 µm, 0.1 mL/min, estimated dead time 2.2 min; A: water + 0.1% formic acid, pH 3; B: methanol + 0.1% formic acid, pH 3; gradient (min/%B) 0/5 5/5 25/95 25.1/100 35/100 35.1/5 45/5; remark: listed apart in the source
[12] = RP, Waters CORTECS T3, 100 × 2.1 mm, 2.7 µm, 0.2 mL/min, estimated dead time 1.1 min; A: water + 0.045% formic acid + 0.11% ammonium hydroxide, pH 7; B: methanol; gradient (min/%B) 0/5 5/5 25/95 25.1/100 35/100 35.1/5 45/5
[13] = RP, Waters CORTECS T3, 100 × 2.1 mm, 2.7 µm, 0.2 mL/min, estimated dead time 1.1 min; A: water + 0.1% formic acid, pH 3; B: methanol + 0.1% formic acid, pH 3; gradient (min/%B) 0/0 1/0 6/5 30/100 35/100 35.1/0 40/0
[14] = HILIC, Thermo Scientific Accucore HILIC, 100 × 2.1 mm, 2.6 µm, 0.5 mL/min, estimated dead time 0.44 min; A: water + 0.1% formic acid + 10 mM ammonium formate, pH 3; B: 5% water + 95% acetonitrile + 0.1% formic acid + 10 mM ammonium formate, pH 3; gradient (min/%B) 0/95 5/95 20/57 25/57 30/95 40/95
[15] = HILIC, Merck SeQuant ZIC-HILIC, 150 × 2.1 mm, 5 µm, 0.75 mL/min, estimated dead time 0.44 min; A: water + 0.1% acetic acid + 10 mM ammonium acetate, pH 4; B: 5% water + 95% acetonitrile + 0.1% acetic acid + 10 mM ammonium acetate, pH 4; gradient (min/%B) 0/95 5/95 20/57 25/57 30/95 40/95
[16] = RP, Waters ACQUITY UPLC BEH C18, 100 × 2.1 mm, 1.7 µm, 0.2 mL/min, estimated dead time 1.1 min; A: water + 0.025% formic acid + 20 mM ammonium acetate + 0.055% ammonium hydroxide, pH 7; B: methanol; gradient (min/%B) 0/5 5/5 25/100 30/100 30.1/5 35/5; remark: listed apart in the source
[17] = RP, Waters CORTECS T3, 100 × 2.1 mm, 2.7 µm, 0.2 mL/min, estimated dead time 1.1 min; A: water + 0.1% formic acid, pH 3; B: methanol + 0.1% formic acid, pH 3; gradient (min/%B) 0/5 5/5 25/95 25.1/100 35/100 35.1/5 45/5
[18] = RP, Waters ACQUITY UPLC BEH C18, 100 × 2.1 mm, 1.7 µm, 0.1 mL/min, estimated dead time 2.2 min; A: water + 0.1% formic acid, pH 3; B: methanol + 0.1% formic acid, pH 3; gradient (min/%B) 0/5 5/5 25/95 25.1/100 35/100 35.1/5 45/5; remark: listed apart in the source

Structure (SMILES): c1ncc2[nH]cnc2n1 [PURINE]
- LC retention time [1]: 1.31 min
- LC retention time [2]: 35.3 min
- LC retention time [3]: 3.26 min
- LC retention time [4]: 2.6 min
- LC retention time [5]: 1.99 min
- LC retention time [6]: 2.36 min
- LC retention time [7]: 1.74 min
- LC retention time [8]: 2.61 min
- LC retention time [9]: 4.62 min
- LC retention time [10]: 1.59 min
- LC retention time [11]: 4.65 min
- LC retention time [12]: 3.15 min
- LC retention time [13]: 3.64 min
- LC retention time [14]: 1.41 min
- LC retention time [15]: 1.25 min
- LC retention time [16]: 3.15 min
- LC retention time [17]: 6.98 min
- LC retention time [18]: 2.69 min
